Several values for one entry are separate records, joined by “and”; a condition that tells them apart may be missing. Identical values can stand only once. Entries after “also recorded” stand apart in the source; their conditions may differ.
Test system: subjects with CHD having decreased RBC K+ content
Assay: Single-Blind Trial of Amiloride in Coronary Heart Disease During 2-Year Follow-Up
Assay type: in vivo, human
Description: Subjects were evaluated by clinical (CCS angina Class, dyspnea, and arrhythmia). Other non CHD causes of chest pain, dyspnea, and arrhythmia had been ruled out. Safety control were serial ECG, non-invasive hemodynamics (DynaPulse 200A, CA, USA), Ion Transport Study (plasma and RBC electrolytes, 12-hour urine volume and electrolyte excretion, and plasma and urine creatinine and osmolality), BIA for Body Composition Analysis and estimation of Total Body K^+ (Quantum X, RJL Systems), and Clinical Biochemistry (FPG, Lipids, Uric acid), were measured at 1, 3, 6, 12, 18, 24 months follow-up period.
After written consent, each patient entered this single-blind trial directed to reverse or improve angina and other symptoms of CHD, as well as the ECG alterations of ischemia, and if possible in long-term assay, on improved LV motion/contractility in the echocardiography studies.
All cases had: a) Serial ECG for LVH by Cornell or Sokolow-Lyon Criteria (QRS duration times Cornell voltage: [R aVL+ SV3, with 6 mm added in women, >2440 mm×ms], Sokolow-Lyon voltage: [SV1+RV5/V6]> 38 mm; along with LV strain pattern [classical ST-segment depressed, with inverted T-waves], or LVH voltage criteria with mild LV strain pattern (isoelectric, biphasic or non-symmetrical negative T-waves, without ST-segment depression), and ECG criteria for infarction and/or ischemia (Q-waves from previous AMI, decreased R-wave height, non-progressive R-wave voltages in precordial leads, ST-segment elevation […] often referred as injury current, ST-segment depression […] often downsloping from the J point, rectification of the ST segment, and isoelectric, biphasic, negative or inverted T-waves, intraventricular conduction disturbance, and arrhythmias); b) Non-invasive hemodynamic study (DP200M) for cardiac parameters (LV Ejection Time [LVET], LV dP/dT (LV delta pressure-time), Cardiac output and index (CO, Cl), Stroke Volume (SV), Pulse Wave Analysis (PWA) of Central Aortic Blood Pressure [BP], Aortic Systolic (SBP), Diastolic (DBP) and mean (m) BP, Aortic augmentation index; inflection point and reflected wave analysis, Systemic Vascular Resistance and Compliance (SVR/SVC), and Brachial Artery Distensibility (BAD), Brachial Artery Compliance (BAC); c) Ion Transport Studies for RBC (K^+, Na^+) plasma (K^+, Na^+, Cl^−, ICa^2+, Mg^2+), and 12-hours night urinary volume (K^+, Na^+, Cl^−, pH), d) Bio-Impedance Analysis (BIA, Quantum X, RJL Systems, MI, USA) for Total body Potassium, Total body water/Extracellular Water, Fat Mass (FM) and Fat-Free Mass (FFM) and e) Echocardiography was obtained at entry, 6 and 12, 24 months periods.
The statistical analysis was performed using the Student's t-test and analysis of variance. To reduce the probability of significant differences arising by chance, Bonferroni's correction was applied following analysis of variance. All measurement are presented as the mean±S.D., and differences were considered significant when p<0.05.

## Cl.NC(N)=NC(=O)c1nc(Cl)c(N)nc1N.O.O [Amiloride, 3,5-diamino-6-chloro-N-(diaminomethylene) pyrazinecarboxamide monohydrochloride, dihydrate]
2-year trial, n=52
  Days for Improvement, Percentage (%): 86.5%
  EGG Alterations: Improved Changes, Number: 23
  EGG Alterations: Improved Changes, Percentage (%): 44.2%
  EGG Alterations: Reverted to Normal, Number: 18
  EGG Alterations: Reverted to Normal, Percentage (%): 34.5%
  EGG Alterations: Unchanged/Worst, Number: 10
  EGG Alterations: Unchanged/Worst, Percentage (%): 19.2%
  EGG Alterations: Weeks for Improvement: 3.4 ± 1.5 Weeks
  EGG Alterations: Weeks for Improvement, Percentage (%): 61%
  Echocardiographic Changes: Altered Hypokinesia, Number: 34
  Echocardiographic Changes: Altered Hypokinesia, Percentage (%): 65.5%
  Echocardiographic Changes: Normal Contractility, Number: 18
  Echocardiographic Changes: Normal Contractility, Percentage (%): 34.5%
  Echocardiographic Changes: Reversed Hypokinesia, Number: 27
  Echocardiographic Changes: Reversed Hypokinesia, Percentage (%): 52%
  Echocardiographic Changes: Unchanged Hypokinesia, Number: 7
  Echocardiographic Changes: Unchanged Hypokinesia, Percentage (%): 13.5%
  Free of Angina (1-2 years), Number: 37
  Free of Angina (1-2 years), Percentage (%): 71.2%
  New CVD Events: ACS, Number: 7
  New CVD Events: ACS, Percentage (%): 13.5%
  New CVD Events: AMI/Stroke/Death, Number: 0
  New CVD Events: AMI/Stroke/Death, Percentage (%): 0%
  New CVD Events: None, Number: 41
  New CVD Events: None, Percentage (%): 79%
  New CVD Events: Ventricular Arrhythmias, Number: 5
  New CVD Events: Ventricular Arrhythmias, Percentage (%): 9.6%
  Reversion of Angina, Number: 43
  Reversion of Angina, Percentage (%): 82.7%
2-year trial, n=52, Amiloride 5 to 10 mg/day
  Subjects with Angina: Days for Improvement: 6.2 ± 3.5 days
Diabetic, inferior AMI, during admission in the Amiloride trial
  ECG change, single subject FIG. 14A: improvement in the subject's antero-lateral ischemia
Diabetic, two months after withdrawal of Amiloride treatment
  ECG after withdrawal, single subject FIG. 14B: ECG alterations marked with arrows indicative of acute coronary syndrome and ventricular arrhythmias
Person, 1-year post infarction, 5 months Amiloride, calcium and statins
  ECG change, single subject FIG. 12B: significant ECG improvement of ST-segment, and T-waves (V1-V6)
Person, 18 months post AMI, Amiloride, calcium and statins, no other medication
  ECG, single subject FIG. 12C: essentially a normal ECG trace
Person, 18 months post AMI, Amiloride, calcium and statins, monohydrochloride, dihydrate
  Duke Treadmill Scores, single subject FIG. 12C: 6.23 and 5.49
Person, diabetes, angina, 5-months of Amiloride and statins
  ECG change, single subject FIG. 13B: improvement of ischemic changes
Person, 5-months of Amiloride and statins, score −3 before
  DT Score, single subject FIG. 13B: 2.3
Person, after 6-months without Amiloride, optimal angina and diabetes medications
  ECG after withdrawal, single subject FIG. 13C: recurrence of ECG alterations
Person, three months after Amiloride was reinitiated
  ECG after re-start, single subject FIG. 13C: normal without ischemic changes
person, infarction, angina, heart failure, 2-months Amiloride (5 mg) and calcium plus other medications
  ECG change, single subject FIG. 11C: rapid reversion of ST-T alterations (V2-V6)
person, 2-months Amiloride (5 mg) and calcium, monohydrochloride, dihydrate
  angina and heart failure symptoms, single subject FIG. 11C: free of angina or symptoms of heart failure; also recorded: free of angina and symptoms of heart failure
person, 2-months Amiloride (5 mg) and calcium, score −3 before entering trial
  Duke Treadmill Score, single subject FIG. 11C: +4.3

Reference: patent US20090062309A1, “Therapeutic compositions for the treatment of cardiovascular diseases and methods for use therefor” (priority 2007, published 2009)
